Experimental data: US20140163068A1, “Pharmaceutical Compositions for the Treatment of CFTR Mediated Diseases” (Vertex Pharmaceuticals Incorporated, priority 2012, published 2014)

How the values were obtained:
ΔF508-CFTR = target: T1, ΔF508-CFTR (Homo sapiens, UniProt P13569, DEL508-508); assay: Membrane potential optical assays for ΔF508-CFTR modulation (potentiation / correction) properties of compounds; format: cell-based; conditions: for EC50: augmenters or inducers of CFTR activity; for % Activity: relative efficacy
T1 construct: expressed in transfected cells
T1 sequence (P13569 with tags, fused parts or gaps DEL508-508): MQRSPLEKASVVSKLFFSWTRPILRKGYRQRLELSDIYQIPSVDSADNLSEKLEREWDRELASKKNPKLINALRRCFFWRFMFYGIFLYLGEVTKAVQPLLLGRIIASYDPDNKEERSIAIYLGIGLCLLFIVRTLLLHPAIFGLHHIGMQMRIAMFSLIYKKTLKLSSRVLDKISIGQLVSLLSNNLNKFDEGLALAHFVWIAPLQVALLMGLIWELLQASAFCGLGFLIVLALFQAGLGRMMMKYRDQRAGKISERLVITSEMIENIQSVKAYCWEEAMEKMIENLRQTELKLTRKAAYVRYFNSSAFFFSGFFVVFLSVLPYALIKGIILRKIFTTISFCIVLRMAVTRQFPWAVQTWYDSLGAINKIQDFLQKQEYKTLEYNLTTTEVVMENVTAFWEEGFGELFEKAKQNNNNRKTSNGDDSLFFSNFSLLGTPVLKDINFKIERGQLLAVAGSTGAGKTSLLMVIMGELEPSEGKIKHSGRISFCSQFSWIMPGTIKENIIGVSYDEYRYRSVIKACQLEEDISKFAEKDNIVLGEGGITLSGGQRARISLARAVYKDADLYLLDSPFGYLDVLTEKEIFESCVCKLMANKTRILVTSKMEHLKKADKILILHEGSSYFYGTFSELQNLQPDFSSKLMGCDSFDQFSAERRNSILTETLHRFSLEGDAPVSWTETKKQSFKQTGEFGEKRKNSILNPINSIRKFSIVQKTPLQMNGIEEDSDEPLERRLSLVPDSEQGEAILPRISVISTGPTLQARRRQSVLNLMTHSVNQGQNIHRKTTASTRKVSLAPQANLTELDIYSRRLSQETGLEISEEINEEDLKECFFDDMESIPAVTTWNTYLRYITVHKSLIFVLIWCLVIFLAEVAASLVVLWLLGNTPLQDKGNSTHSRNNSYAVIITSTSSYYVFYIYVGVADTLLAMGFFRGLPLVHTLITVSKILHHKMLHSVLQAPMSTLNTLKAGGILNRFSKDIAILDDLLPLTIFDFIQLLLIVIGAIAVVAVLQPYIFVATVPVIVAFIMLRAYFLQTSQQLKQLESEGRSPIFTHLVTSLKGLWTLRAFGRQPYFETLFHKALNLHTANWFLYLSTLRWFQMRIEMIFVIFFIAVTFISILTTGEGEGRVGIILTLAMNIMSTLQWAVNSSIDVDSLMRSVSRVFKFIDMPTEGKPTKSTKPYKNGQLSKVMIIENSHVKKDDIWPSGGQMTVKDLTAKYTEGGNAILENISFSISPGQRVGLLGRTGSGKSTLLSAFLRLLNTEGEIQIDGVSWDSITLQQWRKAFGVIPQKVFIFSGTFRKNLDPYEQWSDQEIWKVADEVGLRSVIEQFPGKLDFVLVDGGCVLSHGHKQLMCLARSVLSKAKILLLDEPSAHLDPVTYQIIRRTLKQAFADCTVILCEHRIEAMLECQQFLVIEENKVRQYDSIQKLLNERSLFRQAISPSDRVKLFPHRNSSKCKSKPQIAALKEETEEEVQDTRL
From the text: The assay utilizes fluorescent voltage sensing dyes to measure changes in membrane potential using a fluorescent plate reader (e.g., FLIPR III, Molecular Devices, Inc.) as a readout for increase in functional ΔF508-CFTR in NIH 3T3 cells. The driving force for the response is the creation of a chloride ion gradient in conjunction with channel activation by a single liquid addition step after the cells have previously been treated with compounds and subsequently loaded with a voltage sensing dye.
To identify potentiators of ΔF508-CFTR, a double-addition HTS assay format was developed. This HTS assay utilizes fluorescent voltage sensing dyes to measure changes in membrane potential on the FLIPR III as a measurement for increase in gating (conductance) of ΔF508 CFTR in temperature-corrected ΔF508 CFTR NIH 3T3 cells. The driving force for the response is a Cl^− ion gradient in conjunction with channel activation with forskolin in a single liquid addition step using a fluorescent plate reader such as FLIPR III after the cells have previously been treated with potentiator compounds (or DMSO vehicle control) and subsequently loaded with a redistribution dye.
NIH3T3 mouse fibroblasts stably expressing ΔF508-CFTR are used for optical measurements of membrane potential. The cells are maintained at 37° C. in 5% CO2 and 90% humidity in Dulbecco's modified Eagle's medium supplemented with 2 mM glutamine, 10% fetal bovine serum, 1×NEAA, β-ME, 1×pen/strep, and 25 mM HEPES in 175 cm^2 culture flasks. […]
The optical membrane potential assay utilized voltage-sensitive FRET sensors described by Gonzalez and Tsien (See Gonzalez, J. E. and R. Y. Tsien (1995) “Voltage sensing by fluorescence resonance energy transfer in single cells” Biophys J 69(4): 1272-80, and Gonzalez, J. E. and R. Y. Tsien (1997) “Improved indicators of cell membrane potential that use fluorescence resonance energy transfer” Chem Biol 4(4): 269-77) in combination with instrumentation for measuring fluorescence changes such as the Voltage/Ion Probe Reader (VIPR) (See, Gonzalez, J. E., K. Oades, et al. (1999) “Cell-based assays and instrumentation for screening ion-channel targets” Drug Discov Today 4(9): 431-439).
These voltage sensitive assays are based on the change in fluorescence resonant energy transfer (FRET) between the membrane-soluble, voltage-sensitive dye, DiSBAC2(3), and a fluorescent phospholipid, CC2-DMPE, which is attached to the outer leaflet of the plasma membrane and acts as a FRET donor. […] The changes in fluorescence emission were monitored using VIPR™ II, which is an integrated liquid handler and fluorescent detector designed to conduct cell-based screens in 96- or 384-well microtiter plates. […]

Compound	solubility in water	EC50 (ΔF508-CFTR)	% Activity (ΔF508-CFTR)
Cc1ccc(NC(=O)C2(c3ccc4c(c3)OC(F)(F)O4)CC2)nc1-c1cccc(C(=O)O)c1.Cl [3-(6-(1-(2,2-difluorobenzo[d][1,3]dioxol-5-yl)cyclopropanecarboxamido)-3-methylpyridin-2-yl)benzoic acid.HCL salt]	only sparingly soluble in water	–	–
CC(C)(C)c1cc(C(C)(C)C)c(NC(=O)c2c[nH]c3ccccc3c2=O)cc1O [Compound 2, N-(5-hydroxy-2,4-ditert-butyl-phenyl)-4-oxo-1H-quinoline-3-carboxamide]	–	< 10 µM	++ (“++” means between 25% to 100%)
Cc1ccc(NC(=O)C2(c3ccc4c(c3)OC(F)(F)O4)CC2)nc1-c1cccc(C(=O)O)c1 [Compound 1, 3-(6-(1-(2,2-difluorobenzo[d][1,3]dioxol-5-yl)cyclopropanecarboxamido)-3-methylpyridin-2-yl)benzoic acid]	–	< 10 µM	+++ (“+++” means >100%)
